Measurements reported in US5288757A, “Aminosulfonyl urea ACAT inhibitors and a method of lowering blood cholesterol levels therewith” (priority 1993, dated 1994).
Read-outs that look alike come from different tables or passages of the source.

Assays:
[1] = target: T1, acyl-CoA: cholesterol acyltransferase (ACAT) (Oryctolagus cuniculus, UniProt G1SFD9); assay: in vitro inhibition of ACAT (IAI), radiolabeled cholesterol oleate formation in rabbit intestinal microsomes; type: biochemical
T1 construct: in a tissue preparation containing rabbit intestinal microsomes; from tissue; host or cells: rabbit intestinal microsomes
T1 sequence (G1SFD9 1-524): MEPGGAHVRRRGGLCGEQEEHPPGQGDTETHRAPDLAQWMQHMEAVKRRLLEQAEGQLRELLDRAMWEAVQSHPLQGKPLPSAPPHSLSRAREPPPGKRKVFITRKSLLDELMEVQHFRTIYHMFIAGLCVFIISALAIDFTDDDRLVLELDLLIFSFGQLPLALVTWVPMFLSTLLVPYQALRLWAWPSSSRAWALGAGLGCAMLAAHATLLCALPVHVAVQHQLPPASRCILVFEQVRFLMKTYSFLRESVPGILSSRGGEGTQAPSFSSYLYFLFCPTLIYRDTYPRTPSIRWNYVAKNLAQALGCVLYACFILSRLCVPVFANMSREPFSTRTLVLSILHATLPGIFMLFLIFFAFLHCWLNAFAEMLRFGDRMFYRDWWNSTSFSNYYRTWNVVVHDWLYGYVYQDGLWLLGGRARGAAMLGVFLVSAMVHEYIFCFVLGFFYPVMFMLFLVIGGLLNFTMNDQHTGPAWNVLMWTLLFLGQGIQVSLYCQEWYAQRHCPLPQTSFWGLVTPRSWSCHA
Method: The ability of representative compounds of the present invention to inhibit ACAT was measured using an in vitro test more fully described in F. J. Field and R. G. Salone, Biochemica et Biophysica 712:557-570 (1982). The test assesses the ability of a test compound to inhibit the acylation of cholesterol by oleic acid by measuring the amount of radiolabeled cholesterol oleate formed from radiolabeled oleic acid in a tissue preparation containing rabbit intestinal microsomes.

Plasma TC = assay: in vivo screen designated APCC, plasma total cholesterol in rats on high fat, high cholesterol diet; parameters: species or system male Sprague-Dawley rats; conditions: dosed at 30 mg/kg; rat; high fat, high cholesterol diet with 0.5% cholic acid; read-out: % Change in Plasma TC Values (mg/dl)
Excerpt: In one in vivo screen designated APCC, male Sprague-Dawley rats (200 to 225 g) were randomly divided into treatment groups and dosed at 4 PM with either vehicle (CMC/Tween) or suspensions of compounds in vehicle. The normal chow diet was then replaced with a high fat, high cholesterol diet with 0.5% cholic acid. The rats consumed this diet ad libitum during the night and were sacrificed at 8 AM to obtain blood samples for cholesterol analysis using standard procedures. Statistical differences between mean cholesterol values for the same vehicle were determined using analysis of variance followed by Fisher's least significant test. Compounds were dosed at 30 mg/kg unless otherwise noted.

## CC(C)c1cccc(C(C)C)c1NC(=O)NS(=O)(=O)N(C(C)C)C(C)C [Example 28, N-[2,6-bis(1-methylethyl)phenyl]-N'-[(diisopropylamino)sulfonyl]urea]
[1]
  IC50: 1100 nM
Plasma TC
  change in vivo at 30 mg/kg: -60%

## CCCCN(CCCC)S(=O)(=O)N(C)C(=O)Nc1c(C(C)C)cccc1C(C)C [Example 44]
[1]; rabbit intestinal microsomes, read-out: IAI IC50
  IC50: > 5000 nM
Plasma TC
  change in vivo at 30 mg/kg: -8%
